Tests used:
vFLIP/NEMO interaction = target: T1, vFLIP/NEMO interaction (Human herpesvirus 8 type P, UniProt F5HEZ4); assay: biochemical; assay type: binding, Kaposi's sarcoma herpesvirus (KSHV)
T1 construct: vFLIP (1-178) and NEMO (150-272) were cloned into pET28a vector; made in house; host or cells: E. coli BL21(DE3)
Protocol: For the competition assay, two-fold serial dilution of the different NEMO mimetics were prepared in DMSO then diluted in TR-FRET buffer to 5× and added in triplicates to a 384 low volume well plate. His-MBP vFLIP diluted to 5× in TR-FRET buffer (250 nM) was then added to each well and incubated for 15 min at RT. His-Biotinylated NEMO diluted to 5× in TR-FRET buffer (250 nM) was the added to the mixture followed by addition of 5× or 200 nM) streptavidin-XL665 and (5× or 1 nM) of the antibody-tagged fluorophore anti-MBPK labeled with Europium cryptate). The final concentration of the NEMO mimetics ranged from 0.195 μM to 100 μM. Total assay volume was 20 μL. The plate was incubated for 1 h at RT then read using BioTek Synergy NEO. Titration of non-biotinylated NEMO (0.0195-10 μM) was used as a positive control in every run. The effect of the peptides on vFLIP/NEMO interaction was normalized to the control and expressed as percent inhibition (% of control):
%ofcontrol=FRETCHD−FRETbackground/FRETcontrol−FRETbackground where FRET control is the TR-FRET signal in DMSO treated wells (highest signal) and FRET background is TR-FRET signal in wells containing the highest concentration of non-biotinylated NEMO (10 μM) which provides the lowest signal. Normalized TR-FRET data was plotted using Graphpad Prism.
Supplementary Figure 1. Schematic representation of the Time-resolved Fluorescence Energy Transfer (TR-FRET) binding assay. (a) Complexes of recombinant his-MBP vFLIP, biotinylated His-NEMO, Europium cryptate conjugated anti-MBP antibody and strepavidin XL665 were used to generate proximity for a FRET signal between the donor fluorophore Europium cryptate and the acceptor fluorophore strepavidin XL665. The TR-FRET signal was calculated as a ratiometric measurement of the acceptor fluoroscence emission at 665nm over the donor emission at 620nm multiplied by 10000. […] (d) Size exclusion chromatography of NEMO-vFLIP complex indicating a shift to the left in absorbance at 280nm when NEMO binds specifically to vFLIP. […]

Serum stability assay = assay type: in vitro ADME; settings: 25% fetal bovine serum in RPMI, HPLC, read-out: initial peptide remained intact
Protocol: Time points of 30 min, 1 h, 2 h, 8 h, and 24 h were analyzed in triplicate. Each reaction was started upon addition of FBS to 60 μM peptide. Reactions were quenched at time points with addition of 100% EtOH, chilled on ice for 10 min, and pelleted at 11,752 × g. Supernatant was injected onto an Agilent analytical HPLC equipped with an XTerra RP18 3.5 µm 2.1 × 150 mm column (Part No. 186000410) and visualized at 220 nm. Integration of peak areas was used to determine percent degradation of peptides. Mass of cleaved products were determined using Matrix assisted laser desorption ion time of flight (MALDI-TOF) spectroscopy.

[1] = Thermal denaturation by circular dichroism; assay type: physicochemical; settings: 5–95 °C
Protocol: […] The spectra were averaged over 4 scans with the background subtracted to the analogous experimental conditions. Each sample was prepared in a 50 mM potassium fluoride solution in water (pH 7.4) to a final concentration of 20 μM. The concentrations of each peptide were determined by the UV absorption at 280 nm.

BC-3-luc PEL xenograft = assay: PEL in vivo xenograft mouse model; design: species or system NOD-SCID mice; settings: 20 mg/kg, 9 consecutive days
Protocol: We injected BC-3-luc PEL cells into the peritoneal cavity of NOD-SCID mice and monitored tumor burden by bioluminescence imaging. […] Although the overall performance of our peptide is highly encouraging, further optimization of delivery and dosing will be essential to achieve more robust responses in vivo.
[…] BC3NFRen-luc#3 were injected intraperitoneally into 4-6 week-old male NOD/SCID mice (Jackson Laboratory, stock 001303). […] We monitored tumor burden or bioluminescence (photons/s/cm^2/steradian) by live imaging and weighing, with the sacrificial endpoint determined to be a net gain or loss of 10% body weight over a week.

T1 sequence (F5HEZ4 1-178): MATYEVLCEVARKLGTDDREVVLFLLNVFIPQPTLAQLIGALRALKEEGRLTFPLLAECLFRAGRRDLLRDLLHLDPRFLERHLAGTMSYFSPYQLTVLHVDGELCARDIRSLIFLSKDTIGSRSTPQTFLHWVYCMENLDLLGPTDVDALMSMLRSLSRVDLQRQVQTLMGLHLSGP

For CC[C@H](C)[C@H](NC(=O)[C@H](CC(C)C)NC(=O)[C@H](CCC(=O)O)NC(=O)[C@H](CC(=O)O)NC(=O)[C@@H](NC(=O)[C@H](CCCCn1cc(COCc2cn(CCCC[C@H](NC(=O)[C@H](CC(C)C)NC(=O)[C@H](CCCNC(=N)N)NC(=O)[C@H](CCCNC(=N)N)NC(=O)[C@@H](NC(=O)[C@H](CCC(=O)NC3CCCCC3)NC(=O)[C@H](CCC(=O)O)NC(=O)[C@H](Cc3c[nH]c4ccccc34)NC(=O)[C@H](CC(C)C)NC(=O)[C@H](CCC(N)=O)NC(=O)[C@H](CCCNC(=N)N)NC(=O)[C@@H](NC(=O)[C@H](Cc3c[nH]c4ccccc34)NC(=O)[C@H](CCC(=O)O)NC(C)=O)[C@@H](C)CC)[C@@H](C)CC)C(N)=O)nn2)nn1)NC(=O)[C@H](CCCNC(=N)N)NC(=O)[C@H](Cc1ccccc1)NC(=O)[C@H](CC(C)C)NC(=O)[C@H](CCCNC(=N)N)NC(=O)[C@H](Cc1c[nH]cn1)NC(=O)[C@@H](NC(=O)[C@H](CCC(=O)O)NC(C)=O)[C@@H](C)CC)[C@@H](C)CC)C(=O)N[C@@H](CCCNC(=N)N)C(N)=O [CHD3^NEMO], the Ki (vFLIP/NEMO interaction) was 6.9 ± 1.4 µM, the remaining at 24 h, 60 μM (Serum stability assay) was ~80% and the “conformational stability (helix percentage)” value [1] was “retain a significant proportion of helix percentage at high temperatures”. The toxicity (BC-3-luc PEL xenograft) was “without any observed toxicity”.

From paper PMC7156456, “Modulation of virus-induced NF-κB signaling by NEMO coiled coil mimics” (Nature Communications, 2020)
